Results on eight molecules are retold here after ChEMBL document CHEMBL1148589, “Rationally designed nucleoside antibiotics that inhibit siderophore biosynthesis of Mycobacterium tuberculosis” (J Med Chem, 2006).

A short description of series [1]: Therapeutic index (ED50/MIC50). The class given is cell-based. The conditions noted are these: mouse, P388 cells; read-out: Ratio ED50/MIC50.
For a further series, the system named is P388. The series can be described thus: Cytotoxicity against P388 murine leukemia cell line at 100-200 uM. The class given is functional. The note with it: Mus musculus, read-out: ED50 (the source's name).
Series [2] has as its system Mycobacterium tuberculosis. Kind of series: Inhibitory activity against Mycobacterium tuberculosis H37Rv. The class given is functional.
The nature of series [3]: Dissociation constant, pKa of the compound. The class given is physicochemical.

Usually MIC50 stands for the lowest concentration that inhibits either 50% of growth or 50% of the strains tested, depending on the study. A high value points to lower susceptibility. What is called MIC99 is the lowest concentration that inhibits either 99% of growth or 99% of the strains tested, depending on the study. Read a high MIC99 as lower susceptibility. As usually defined, the pKa is the negative logarithm of the acid dissociation constant. A low value points to a group that gives up its proton readily.

Values after ≈ are worked out from the molar mass of the structure shown. Bounds are passed on as bounds.

As for `Nc1ncnc2c1ncn2[C@@H]1O[C@H](CNS(=O)(=O)NC(=O)c2ccccc2O)[C@@H](O)[C@H]1O`, the selectivity ratio in series [1] is above 900. Further, in the series on P388, the EC50 is above 100 µg/mL. In series [2], the MIC50 came out at 0.077 µM (≈ 0.0358 µg/mL) and the MIC99 came out at 0.19 µM (≈ 0.0884 µg/mL).

`NNC(=O)c1ccncc1` [ISONIAZID] registered an MIC99 in series [2] of 0.18 µM (≈ 0.0247 µg/mL).

The molecule `Nc1ncnc2c1ncn2[C@@H]1O[C@H](COS(=O)(=O)NC(=O)c2ccccc2)[C@@H](O)[C@H]1O` showed a pKa in series [3] of 2.8. Further, in the series with P388, the EC50 was above 100 µg/mL. In series [2], the MIC50 was determined as 4.5 µM (≈ 2.03 µg/mL) and the MIC99 was determined as 12.5 µM (≈ 5.63 µg/mL).

On to `Nc1ncnc2c1ncn2[C@@H]1O[C@H](COP(=O)(O)CC(=O)c2ccccc2O)[C@@H](O)[C@H]1O`, for which, in series [3], the pKa amounted to 2. Also, the EC50 in the series with P388 was above 100 µg/mL. In addition, in series [2], the MIC50 is above 100 µM and the MIC99 was above 100 µM.

With `Nc1ncnc2c1ncn2[C@@H]1O[C@H](Cn2cc(C(=O)c3ccccc3O)nn2)[C@@H](O)[C@H]1O`, the EC50 in the series on P388 is above 100 µg/mL. In series [2], this molecule registered an MIC50 above 100 µM and an MIC99 above 100 µM.

Regarding `Nc1ccccc1C(=O)NS(=O)(=O)OC[C@H]1O[C@@H](n2cnc3c(N)ncnc32)[C@H](O)[C@@H]1O`, the EC50 in the series with P388 was above 100 µg/mL. For the same molecule, in series [2], the MIC50 is 30.9 µM (≈ 14.4 µg/mL) and the MIC99 was above 100 µM.

The molecule `Nc1ncnc2c1ncn2[C@@H]1O[C@H](COS(=O)(=O)NCc2ccccc2O)[C@@H](O)[C@H]1O` had a pKa in series [3] of 8.5. In the series with P388, the EC50 is above 100 µg/mL. Also, in series [2], the MIC50 is above 100 µM and the MIC99 was above 100 µM.

For the molecule `Nc1ncnc2c1ncn2[C@@H]1O[C@H](COS(=O)(=O)NC(=O)c2ccccc2O)[C@@H](O)[C@H]1O`, the EC50 in the series on P388 was above 100 µg/mL. In series [2], this molecule displayed an MIC50 of 0.091 µM (≈ 0.0424 µg/mL) and an MIC99 of 0.29 µM (≈ 0.135 µg/mL).
